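Step 1: Grow cells in 96-well plates. Step 2: Expose to compound for 48 hours at 5 concentrations. Step 3: Interpolate endpoints linearly; if unreached, use highest concentration. The concentration for 50% growth inhibition is given as GI50.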 Active and inactive are the calls of the source. No stated cut-off is given here; in the data, active = GI50 up to about 1.1 µM and inactive = higher.
Legend:
Assay in all cases: growth of human tumour cells (NCI), 48 h
NCI-H226 = system: NCI-H226
OVCAR-8 = system: OVCAR-8
SK-OV-3 = system: SK-OV-3
SF-295 = system: SF-295
ACHN = system: ACHN
UO-31 = system: UO-31
HT-29 = system: HT-29
HCC 2998 = system: HCC 2998
TK-10 = system: TK-10
HOP-92 = system: HOP-92
CCRF-CEM = system: CCRF-CEM
SK-MEL-28 = system: SK-MEL-28
UACC-257 = system: UACC-257
NCI-H522 = system: NCI-H522
K562 = system: K562
SN12C = system: SN12C
786-0 = system: 786-0
OVCAR-4 = system: OVCAR-4
SF-268 = system: SF-268
U-251 = system: U-251
MOLT-4 = system: MOLT-4
MDA-MB-231 = system: MDA-MB-231
HCT-15 = system: HCT-15
RPMI-8226 = system: RPMI-8226
SNB-19 = system: SNB-19
COLO 205 = system: COLO 205
HL-60 = system: HL-60
CAKI-1 = system: CAKI-1
UACC-62 = system: UACC-62
EKVX = system: EKVX
NCI-H23 = system: NCI-H23
T47D = system: T47D
Malme-3M = system: Malme-3M
RXF 393 = system: RXF 393
SK-MEL-5 = system: SK-MEL-5
SF-539 = system: SF-539
Hs-578T = system: Hs-578T
SK-MEL-2 = system: SK-MEL-2
MDA-N = system: MDA-N
A498 = system: A498
HOP-62 = system: HOP-62
IGROV-1 = system: IGROV-1
DU-145 = system: DU-145
OVCAR-5 = system: OVCAR-5
PC-3 = system: PC-3
KM12 = system: KM12
OVCAR-3 = system: OVCAR-3
BT-549 = system: BT-549
LOX IMVI = system: LOX IMVI
HCT-116 = system: HCT-116
MCF7 = system: MCF7
NCI-H460 = system: NCI-H460
A549 = system: A549
SW-620 = system: SW-620
SNB-75 = system: SNB-75
MDA-MB-435 = system: MDA-MB-435
NCI/ADR-RES = system: NCI/ADR-RES
M14 = system: M14

Compound: CC1=NN(C(=O)CC(=O)N(C(=O)c2ccccc2)c2ccc(Cl)cc2)C(=O)C1/N=N/c1ccc([N+](=O)[O-])cc1 (stereo not drawn)
- GI50 (NCI-H226): > 10 µM (inactive)
- GI50 (OVCAR-8): > 10 µM (inactive)
- GI50 (SK-OV-3): > 10 µM (inactive)
- GI50 (SF-295): > 10 µM (inactive)
- GI50 (ACHN): > 10 µM (inactive)
- GI50 (UO-31): > 10 µM (inactive)
- GI50 (HT-29): > 10 µM (inactive)
- GI50 (HCC 2998): > 10 µM (inactive)
- GI50 (TK-10): > 10 µM (inactive)
- GI50 (HOP-92): > 10 µM (inactive)
- GI50 (CCRF-CEM): > 10 µM (inactive)
- GI50 (SK-MEL-28): > 10 µM (inactive)
- GI50 (UACC-257): > 10 µM (inactive)
- GI50 (NCI-H522): > 10 µM (inactive)
- GI50 (K562): > 10 µM (inactive)
- GI50 (SN12C): > 10 µM (inactive)
- GI50 (786-0): > 10 µM (inactive)
- GI50 (OVCAR-4): > 10 µM (inactive)
- GI50 (SF-268): > 10 µM (inactive)
- GI50 (U-251): > 10 µM (inactive)
- GI50 (MOLT-4): 6.49 µM (inactive)
- GI50 (MDA-MB-231): > 10 µM (inactive)
- GI50 (HCT-15): > 10 µM
- GI50 (RPMI-8226): > 10 µM (inactive)
- GI50 (SNB-19): > 10 µM (inactive)
- GI50 (COLO 205): > 10 µM (inactive)
- GI50 (HL-60): > 10 µM (inactive)
- GI50 (CAKI-1): > 10 µM (inactive)
- GI50 (UACC-62): > 10 µM (inactive)
- GI50 (EKVX): > 10 µM (inactive)
- GI50 (NCI-H23): > 10 µM (inactive)
- GI50 (T47D): > 10 µM (inactive)
- GI50 (Malme-3M): > 10 µM (inactive)
- GI50 (RXF 393): > 10 µM (inactive)
- GI50 (SK-MEL-5): > 10 µM (inactive)
- GI50 (SF-539): > 10 µM (inactive)
- GI50 (Hs-578T): > 10 µM (inactive)
- GI50 (SK-MEL-2): > 10 µM (inactive)
- GI50 (MDA-N): > 10 µM (inactive)
- GI50 (A498): > 10 µM (inactive)
- GI50 (HOP-62): > 10 µM (inactive)
- GI50 (IGROV-1): > 10 µM (inactive)
- GI50 (DU-145): > 10 µM (inactive)
- GI50 (OVCAR-5): > 10 µM (inactive)
- GI50 (PC-3): > 10 µM (inactive)
- GI50 (KM12): > 10 µM (inactive)
- GI50 (OVCAR-3): > 10 µM (inactive)
- GI50 (BT-549): > 10 µM (inactive)
- GI50 (LOX IMVI): > 10 µM (inactive)
- GI50 (HCT-116): > 10 µM (inactive)
- GI50 (MCF7): > 10 µM (inactive)
- GI50 (NCI-H460): > 10 µM (inactive)
- GI50 (A549): > 10 µM (inactive)
- GI50 (SW-620): > 10 µM (inactive)
- GI50 (SNB-75): > 10 µM (inactive)
- GI50 (MDA-MB-435): > 10 µM (inactive)
- GI50 (NCI/ADR-RES): > 10 µM (inactive)

Compound: CO[C@H]1C=C[C@@]23c4cc5c(cc4CO[C@]2(O)CN(C)[C@H]3C1)OCO5
- GI50 (NCI-H226): > 100 µM (inactive)
- GI50 (OVCAR-8): > 100 µM (inactive)
- GI50 (SK-OV-3): > 100 µM (inactive)
- GI50 (SF-295): > 100 µM (inactive)
- GI50 (ACHN): > 100 µM (inactive)
- GI50 (UO-31): > 100 µM (inactive)
- GI50 (HT-29): > 100 µM (inactive)
- GI50 (HCC 2998): > 100 µM (inactive)
- GI50 (TK-10): > 100 µM (inactive)
- GI50 (HOP-92): > 100 µM (inactive)
- GI50 (CCRF-CEM): > 100 µM (inactive)
- GI50 (SK-MEL-28): > 100 µM (inactive)
- GI50 (UACC-257): > 100 µM (inactive)
- GI50 (NCI-H522): > 100 µM (inactive)
- GI50 (K562): > 100 µM (inactive)
- GI50 (SN12C): > 100 µM (inactive)
- GI50 (786-0): > 100 µM (inactive)
- GI50 (OVCAR-4): > 100 µM (inactive)
- GI50 (SF-268): > 100 µM (inactive)
- GI50 (U-251): > 100 µM (inactive)
- GI50 (MOLT-4): > 100 µM (inactive)
- GI50 (MDA-MB-231): > 100 µM (inactive)
- GI50 (HCT-15): > 100 µM
- GI50 (RPMI-8226): > 100 µM (inactive)
- GI50 (SNB-19): > 100 µM (inactive)
- GI50 (COLO 205): > 100 µM (inactive)
- GI50 (HL-60): > 100 µM (inactive)
- GI50 (CAKI-1): > 100 µM (inactive)
- GI50 (UACC-62): > 100 µM (inactive)
- GI50 (EKVX): > 100 µM (inactive)
- GI50 (NCI-H23): > 100 µM (inactive)
- GI50 (T47D): > 100 µM (inactive)
- GI50 (Malme-3M): > 100 µM (inactive)
- GI50 (SK-MEL-5): > 100 µM (inactive)
- GI50 (SF-539): > 100 µM (inactive)
- GI50 (Hs-578T): > 100 µM (inactive)
- GI50 (SK-MEL-2): > 100 µM (inactive)
- GI50 (MDA-N): > 100 µM (inactive)
- GI50 (A498): > 100 µM (inactive)
- GI50 (IGROV-1): > 100 µM (inactive)
- GI50 (DU-145): > 100 µM (inactive)
- GI50 (OVCAR-5): > 100 µM (inactive)
- GI50 (PC-3): > 100 µM (inactive)
- GI50 (M14): > 100 µM (inactive)
- GI50 (KM12): > 100 µM (inactive)
- GI50 (OVCAR-3): > 100 µM (inactive)
- GI50 (BT-549): > 100 µM (inactive)
- GI50 (LOX IMVI): > 100 µM (inactive)
- GI50 (HCT-116): > 100 µM (inactive)
- GI50 (MCF7): > 100 µM (inactive)
- GI50 (NCI-H460): > 100 µM (inactive)
- GI50 (A549): > 100 µM (inactive)
- GI50 (SW-620): > 100 µM (inactive)
- GI50 (SNB-75): > 100 µM (inactive)
- GI50 (MDA-MB-435): > 100 µM (inactive)
- GI50 (NCI/ADR-RES): > 100 µM (inactive)
